Reference: patent US8637252B2, “Methods and compositions for determining altered susceptibility of HIV-1 to anti-HIV drugs” (Monogram Biosciences, Inc., priority 2011, dated 2014)
Where “and” joins values, the source holds several entries; their conditions need not be identical. Equal values may be shown once.

Tested on: HIV-1 (patient-derived PR-RT segment)
Assay: phenotypic drug resistance test, resistance test vectors with patient-derived PR-RT segment, luciferase, 293 cells
Format: cell-based
From the text: Patient-derived segments corresponding to the HIV protease and reverse transcriptase coding regions (hereinafter “PR-RT) were amplified by the reverse transcription-polymerase chain reaction method (RT-PCR) using viral RNA isolated from viral particles present in the plasma or serum of HIV-infected individuals as follows. Viral RNA was isolated from the plasma or serum using oligo-dT magnetic beads (Dynal Biotech, Oslo, Norway), followed by washing and elution of viral RNA. The RT-PCR protocol was divided into two steps. A retroviral reverse transcriptase (e.g. Moloney MuLV reverse transcriptase (Roche Molecular Systems, Inc., Branchburg, N.J.; Invitrogen, Carlsbad, Calif.), or avian myeloblastosis virus (AMV) reverse transcriptase, (Boehringer Mannheim, Indianapolis, Ind.)) was used to copy viral RNA into cDNA. The cDNA was then amplified using a thermostable DNA polymerase (e.g. Taq (Roche Molecular Systems, Inc., Branchburg, N.J.), Tth (Roche Molecular Systems, Inc., Branchburg, N.J.), PRIMEZYME. (enzyme_isolated from Thermus brockianus, Biometra, Gottingen, Germany)) or a combination of thermostable polymerases as described for the performance of “long PCR” (Barnes, W. M., 1994, Proc. Natl. Acad. Sci, USA 91, 2216-20) (e.g. Expand High Fidelity PCR System (Taq+Pwo), (Boehringer Mannheim. Indianapolis, Ind.); GENEAMP® XL PCR kit (PCR kit using_Tth+Vent), (Roche Molecular Systems, Inc., Branchburg, N.J.); or ADVANTAGE II®, Clontech, Palo Alto, Calif.)
PCR primers were designed to introduce ApaI and PinAl recognition sites into the 5′ or 3′ end of the PCR product, respectively.
Resistance test vectors incorporating the “test” patient-derived segments were constructed as described in U.S. Pat. No. 5,837,464 using an amplified DNA product of 1.5 kB prepared by RT-PCR using viral RNA as a template and oligonucleotides PDS Apa, PDS Age, PDS PCR6, Apa-gen, Apa-c, Apa-f, Age-gen, Age-a, RT-ad, RT-b, RT-c, RT-f, and/or RT-g as primers, followed by digestion with ApaI and Agel or the isoschizomer PinAl. To ensure that the plasmid DNA corresponding to the resultant fitness test vector comprises a representative sample of the HIV viral quasi-species present in the serum of a given patient, many (>250) independent E. coli transformants obtained in the construction of a given fitness test vector were pooled and used for the preparation of plasmid DNA.
A packaging expression vector encoding an amphotrophic MuLV 4070A env gene product enables production in a resistance test vector host cell comprising the vector alone viral particles which can efficiently infect human target cells. Vectors encoding all HIV genes with the exception of env were used to transfect a packaging host cell (once transfected the host cell is referred to as a fitness test vector host cell). The packaging expression vector which encodes the amphotrophic MuLV 4070A env gene product is used with the resistance test vector to enable production in the resistance test vector host cell of infectious pseudotyped resistance test vector viral particles.
Drug resistance tests performed with resistance test vectors were carried out using packaging host and target host cells consisting of the human embryonic kidney cell line 293.
Resistance tests were carried out with resistance test vectors using two host cell types. Resistance test vector viral particles were produced by a first host cell (the resistance test vector host cell) that was prepared by transfecting a packaging host cell with the resistance test vector and the packaging expression vector. The resistance test vector viral particles were then used to infect a second host cell (the target host cell) in which the expression of the indicator gene is measured.
The resistance test vectors containing a functional luciferase gene cassette were constructed as described above and host cells were transfected with the resistance test vector DNA. […]

[1] = Sample 47 (K103K/N, V106V/A, Y181Y/C, G190G/A)
[2] = Sample 58 (K103N, Y181Y/C, G190G/A)
[3] = Sample 62 (K103H, P225P/H, T369T/I)
[4] = Sample 90 (K103K/N, Y181C, G190A)

Q: For `CC(C)Nc1cccnc1N1CCN(C(=O)c2cc3cc(NS(C)(=O)=O)ccc3[nH]2)CC1` [DLV, delavirdine], which “fold change in IC50, PR-RT” value (Sample 31 (K103N)) is on record?
A: Its value is 16.4 fold.

Q: What about the “fold change in IC50, PR-RT” value (Sample 33 (K103S)) of the same compound?
A: Its value is 8.7 fold.

Q: What about the “fold change in IC50, PR-RT” value (Sample 34) of the same compound?
A: The value was 0.5 fold.

Q: And the “fold change in IC50, PR-RT” value (Sample 35 (K103H))?
A: The value was 6.5 fold.

Q: What about the “fold change in IC50, PR-RT” value (Sample 36 (K103K/W)) of the same compound?
A: The value was 6.7 fold.

Q: And the “fold change in IC50, PR-RT” value (Sample 38 (K103N))?
A: The value was 128.0 fold.

Q: And the “fold change in IC50, PR-RT” value (Sample 39 (T369A))?
A: Its value is 0.2 fold.

Q: What about the “fold change in IC50, PR-RT” value (Sample 42 (G190G/A)) of the same compound?
A: The value was 0.4 fold.

Q: What about the “fold change in IC50, PR-RT” value (Sample 45) of the same compound?
A: Its value is 0.1 fold.

Q: And the “fold change in IC50, PR-RT” value [1]?
A: Its value is 6.2 fold.

Q: And the “fold change in IC50, PR-RT” value (Sample 50 (K103N))?
A: Its value is 250.0 fold.

Q: What about the “fold change in IC50, PR-RT” value (Sample 51) of the same compound?
A: Its value is 0.3 fold.

Q: And the “fold change in IC50, PR-RT” value (Sample 52)?
A: The value was 3.1 fold.

Q: And the “fold change in IC50, PR-RT” value [2]?
A: Its value is 149.6 fold.

Q: What about the “fold change in IC50, PR-RT” value [3] of the same compound?
A: Its value is 16.0 fold and 16.00 fold.

Q: What about the “fold change in IC50, PR-RT” value (Sample 64 (T369T/A)) of the same compound?
A: Its value is 1.6 fold.

Q: What about the “fold change in IC50, PR-RT” value (Sample 69) of the same compound?
A: Its value is 1.4 fold.

Q: And the “fold change in IC50, PR-RT” value (Sample 72)?
A: The value was 0.9 fold.

Q: What about the “fold change in IC50, PR-RT” value (Sample 80 (K103K/N, Y181Y/C)) of the same compound?
A: The value was 65.0 fold.

Q: What about the “fold change in IC50, PR-RT” value (Sample 81 (K103N, P225H)) of the same compound?
A: Its value is 12.0 fold.

Q: What about the “fold change in IC50, PR-RT” value (Sample 84) of the same compound?
A: The value was 0.9 fold.

Q: What about the “fold change in IC50, PR-RT” value (Sample 85) of the same compound?
A: The value was 25.2 fold.

Q: And the “fold change in IC50, PR-RT” value (Sample 87)?
A: Its value is 0.7 fold.

Q: What about the “fold change in IC50, PR-RT” value (Sample 89 (L1001, K103N)) of the same compound?
A: The value was 250.0 fold.

Q: What about the “fold change in IC50, PR-RT” value [4] of the same compound?
A: Its value is 4.1 fold.

Q: What about the “fold change in IC50, PR-RT” value (Sample 92) of the same compound?
A: The value was 1.1 fold.

Q: And the “fold change in IC50, PR-RT” value (Sample 93)?
A: Its value is 0.3 fold.

Q: How did the “fold change in IC50, PR-RT” value (Sample 31 (K103N)) turn out when `O=C1Nc2ccc(Cl)cc2[C@@](C#CC2CC2)(C(F)(F)F)O1` [EFV, efavirenz] was run?
A: The value was 22.8 fold.

Q: What about the “fold change in IC50, PR-RT” value (Sample 33 (K103S)) of the same compound?
A: Its value is 7.1 fold.

Q: What about the “fold change in IC50, PR-RT” value (Sample 34) of the same compound?
A: Its value is 0.4 fold.

Q: What about the “fold change in IC50, PR-RT” value (Sample 35 (K103H)) of the same compound?
A: The value was 9.3 fold.

Q: What about the “fold change in IC50, PR-RT” value (Sample 36 (K103K/W)) of the same compound?
A: Its value is 6.7 fold.

Q: What about the “fold change in IC50, PR-RT” value (Sample 38 (K103N)) of the same compound?
A: Its value is 42.0 fold.

Q: What about the “fold change in IC50, PR-RT” value (Sample 39 (T369A)) of the same compound?
A: The value was 0.3 fold.

Q: And the “fold change in IC50, PR-RT” value (Sample 42 (G190G/A))?
A: Its value is 3.1 fold.

Q: What about the “fold change in IC50, PR-RT” value (Sample 45) of the same compound?
A: Its value is 0.2 fold.

Q: And the “fold change in IC50, PR-RT” value [1]?
A: The value was 123.9 fold.

Q: And the “fold change in IC50, PR-RT” value (Sample 50 (K103N))?
A: Its value is 63.2 fold.

Q: And the “fold change in IC50, PR-RT” value (Sample 51)?
A: Its value is 0.5 fold.

Q: And the “fold change in IC50, PR-RT” value (Sample 52)?
A: Its value is 1.3 fold.

Q: What about the “fold change in IC50, PR-RT” value [2] of the same compound?
A: Its value is 26.4 fold.

Q: And the “fold change in IC50, PR-RT” value [3]?
A: The value was 20 fold and 20.0 fold and 20.00 fold.

Q: And the “fold change in IC50, PR-RT” value (Sample 64 (T369T/A))?
A: The value was 1.1 fold.

Q: What about the “fold change in IC50, PR-RT” value (Sample 69) of the same compound?
A: The value was 0.8 fold.

Q: And the “fold change in IC50, PR-RT” value (Sample 72)?
A: The value was 0.5 fold.

Q: What about the “fold change in IC50, PR-RT” value (Sample 80 (K103K/N, Y181Y/C)) of the same compound?
A: Its value is 11.0 fold.

Q: And the “fold change in IC50, PR-RT” value (Sample 81 (K103N, P225H))?
A: The value was 98.0 fold.

Q: What about the “fold change in IC50, PR-RT” value (Sample 84) of the same compound?
A: The value was 0.7 fold.

Q: And the “fold change in IC50, PR-RT” value (Sample 85)?
A: The value was 22.0 fold.

Q: And the “fold change in IC50, PR-RT” value (Sample 87)?
A: The value was 0.9 fold.

Q: And the “fold change in IC50, PR-RT” value (Sample 89 (L1001, K103N))?
A: The value was 700.0 fold.

Q: And the “fold change in IC50, PR-RT” value [4]?
A: The value was 50.5 fold.

Q: What about the “fold change in IC50, PR-RT” value (Sample 92) of the same compound?
A: Its value is 1.0 fold.

Q: What about the “fold change in IC50, PR-RT” value (Sample 93) of the same compound?
A: The value was 0.8 fold.

Q: `Cc1ccnc2c1NC(=O)c1cccnc1N2C1CC1` [NVP, nevirapine] was tested. Which “fold change in IC50, PR-RT” value (Sample 31 (K103N)) did it give?
A: Its value is 88.4 fold.

Q: What about the “fold change in IC50, PR-RT” value (Sample 33 (K103S)) of the same compound?
A: Its value is 23.3 fold.

Q: What about the “fold change in IC50, PR-RT” value (Sample 34) of the same compound?
A: Its value is 0.3 fold.

Q: And the “fold change in IC50, PR-RT” value (Sample 35 (K103H))?
A: Its value is 25.2 fold.

Q: What about the “fold change in IC50, PR-RT” value (Sample 36 (K103K/W)) of the same compound?
A: Its value is 13.0 fold.

Q: What about the “fold change in IC50, PR-RT” value (Sample 38 (K103N)) of the same compound?
A: The value was 114.0 fold.

Q: What about the “fold change in IC50, PR-RT” value (Sample 39 (T369A)) of the same compound?
A: The value was 0.3 fold.

Q: And the “fold change in IC50, PR-RT” value (Sample 42 (G190G/A))?
A: The value was 34.0 fold.

Q: What about the “fold change in IC50, PR-RT” value (Sample 45) of the same compound?
A: Its value is 0.3 fold.

Q: What about the “fold change in IC50, PR-RT” value [1] of the same compound?
A: Its value is 400.0 fold.

Q: What about the “fold change in IC50, PR-RT” value (Sample 50 (K103N)) of the same compound?
A: Its value is 153.9 fold.

Q: And the “fold change in IC50, PR-RT” value (Sample 51)?
A: The value was 0.4 fold.

Q: What about the “fold change in IC50, PR-RT” value (Sample 52) of the same compound?
A: Its value is 2.0 fold.

Q: What about the “fold change in IC50, PR-RT” value [2] of the same compound?
A: The value was 400.0 fold.

Q: And the “fold change in IC50, PR-RT” value [3]?
A: Its value is 64 fold and 64.0 fold and 64.00 fold.

Q: What about the “fold change in IC50, PR-RT” value (Sample 64 (T369T/A)) of the same compound?
A: Its value is 1.0 fold.

Q: And the “fold change in IC50, PR-RT” value (Sample 69)?
A: The value was 1.0 fold.

Q: And the “fold change in IC50, PR-RT” value (Sample 72)?
A: The value was 0.7 fold.

Q: What about the “fold change in IC50, PR-RT” value (Sample 80 (K103K/N, Y181Y/C)) of the same compound?
A: The value was 46.0 fold.

Q: And the “fold change in IC50, PR-RT” value (Sample 81 (K103N, P225H))?
A: Its value is 92.0 fold.

Q: And the “fold change in IC50, PR-RT” value (Sample 84)?
A: The value was 0.8 fold.

Q: And the “fold change in IC50, PR-RT” value (Sample 85)?
A: The value was 131.7 fold.

Q: And the “fold change in IC50, PR-RT” value (Sample 87)?
A: The value was 0.8 fold.

Q: And the “fold change in IC50, PR-RT” value (Sample 89 (L1001, K103N))?
A: The value was 37.0 fold.

Q: And the “fold change in IC50, PR-RT” value [4]?
A: The value was 400.0 fold.

Q: And the “fold change in IC50, PR-RT” value (Sample 92)?
A: Its value is 1.1 fold.

Q: And the “fold change in IC50, PR-RT” value (Sample 93)?
A: The value was 1.6 fold.
